Test results taken from patent US7994140B2, “Classes of compounds that interact with GPCRs” (Alchemia Limited, priority 2002, dated 2011).

How the values were obtained:
MC4 = molecular target: T1, MC4 (Homo sapiens, UniProt P32245); test: GPCR radioligand binding (RLB) assay, melanocortin MC4, [125I]NDP-αMSH; conditions: 10 micromolar compound; recombinant human receptor membranes (HEK 293)
T1 construct: purchased Perkin Elmer BioSignal; host or cells: HEK 293
Method in brief: (§1)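 Competition binding against radioligand ([125I]NDP-αMSH for MC4, [125I]SST-14 for SST5) on membranes of HEK 293 cells carrying the human receptor; buffer and incubation time optimized per receptor. Filtration through 0.5% PEI-treated glass fiber, washing, then scintillation counting.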

SST5 = molecular target: T2, SST5 (Homo sapiens, UniProt P35346); test: GPCR radioligand binding (RLB) assay, somatostatin SST5, [125I]SST-14; conditions: 10 micromolar compound; recombinant human receptor membranes (HEK 293)
T2 construct: purchased Perkin Elmer BioSignal; host or cells: HEK 293
T2 sequence (P35346 whole entry): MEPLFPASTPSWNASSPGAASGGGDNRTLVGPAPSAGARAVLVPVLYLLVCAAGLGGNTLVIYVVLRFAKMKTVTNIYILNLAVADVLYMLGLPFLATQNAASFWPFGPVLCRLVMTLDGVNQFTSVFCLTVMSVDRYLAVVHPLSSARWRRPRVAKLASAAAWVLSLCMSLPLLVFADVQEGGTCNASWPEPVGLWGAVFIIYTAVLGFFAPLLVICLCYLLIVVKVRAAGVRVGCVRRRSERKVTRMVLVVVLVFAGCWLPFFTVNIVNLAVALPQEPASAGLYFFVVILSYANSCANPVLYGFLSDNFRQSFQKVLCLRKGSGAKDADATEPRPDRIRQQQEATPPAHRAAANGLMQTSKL
Method in brief: as §1

T1 sequence (P32245 whole entry): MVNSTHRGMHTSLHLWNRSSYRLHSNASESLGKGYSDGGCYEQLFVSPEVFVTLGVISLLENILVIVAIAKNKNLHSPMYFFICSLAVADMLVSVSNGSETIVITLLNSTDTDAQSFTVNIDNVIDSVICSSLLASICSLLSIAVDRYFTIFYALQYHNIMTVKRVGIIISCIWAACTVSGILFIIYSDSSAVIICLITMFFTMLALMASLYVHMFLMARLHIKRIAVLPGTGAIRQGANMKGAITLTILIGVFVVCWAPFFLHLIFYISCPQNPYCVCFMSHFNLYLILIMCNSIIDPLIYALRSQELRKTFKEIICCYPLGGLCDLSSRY

CSC1OC(COCc2ccc(Cl)cc2)C(O)C(OCc2ccc(-c3ccccc3)cc2)C1NC(=O)CCN (stereo not drawn) [Compound 175]
MC4 inhibition at 10 micromolar (MC4): + (Indicates inhibition greater than . . . 50%) | SST5 inhibition at 10 micromolar (SST5): + (Indicates inhibition greater than . . . 50%)

CSC1OC(COCc2ccc(Cl)cc2)C(O)C(OCc2ccc(-c3ccccc3)cc2)C1NC(=O)CCNC(=N)N (stereo not drawn) [Compound 176]
MC4 inhibition at 10 micromolar (MC4): + (Indicates inhibition greater than . . . 50%) | SST5 inhibition at 10 micromolar (SST5): + (Indicates inhibition greater than . . . 50%)

CSC1OC(COCc2ccc(Cl)cc2)C(O)C(OCc2ccc(-c3ccccc3)cc2)C1NC(=O)CCCN (stereo not drawn) [Compound 177]
MC4 inhibition at 10 micromolar (MC4): + (Indicates inhibition greater than . . . 50%) | SST5 inhibition at 10 micromolar (SST5): + (Indicates inhibition greater than . . . 50%)

CSC1OC(COCc2ccc(Cl)cc2)C(O)C(OCc2ccc(-c3ccccc3)cc2)C1NC(=O)CCCNC(=N)N (stereo not drawn) [Compound 178]
MC4 inhibition at 10 micromolar (MC4): + (Indicates inhibition greater than . . . 50%) | SST5 inhibition at 10 micromolar (SST5): + (Indicates inhibition greater than . . . 50%)

CSC1OC(COCc2ccc(-c3ccccc3)cc2)C(O)C(OCc2ccc(-c3ccccc3)cc2)C1NC(=O)CN (stereo not drawn) [Compound 179]
MC4 inhibition at 10 micromolar (MC4): + (Indicates inhibition greater than . . . 50%) | SST5 inhibition at 10 micromolar (SST5): + (Indicates inhibition greater than . . . 50%)

CSC1OC(COCc2ccc(-c3ccccc3)cc2)C(O)C(OCc2ccc(-c3ccccc3)cc2)C1NC(=O)CNC(=N)N (stereo not drawn) [Compound 180]
MC4 inhibition at 10 micromolar (MC4): + (Indicates inhibition greater than . . . 50%) | SST5 inhibition at 10 micromolar (SST5): + (Indicates inhibition greater than . . . 50%)

CSC1OC(COCc2ccc(-c3ccccc3)cc2)C(O)C(OCc2ccc(-c3ccccc3)cc2)C1NC(=O)CCN (stereo not drawn) [Compound 181]
MC4 inhibition at 10 micromolar (MC4): + (Indicates inhibition greater than . . . 50%) | SST5 inhibition at 10 micromolar (SST5): + (Indicates inhibition greater than . . . 50%)

CSC1OC(COCc2ccc(-c3ccccc3)cc2)C(O)C(OCc2ccc(-c3ccccc3)cc2)C1NC(=O)CCNC(=N)N (stereo not drawn) [Compound 182]
MC4 inhibition at 10 micromolar (MC4): + (Indicates inhibition greater than . . . 50%) | SST5 inhibition at 10 micromolar (SST5): + (Indicates inhibition greater than . . . 50%)

CSC1OC(COCc2ccc(-c3ccccc3)cc2)C(O)C(OCc2ccc(-c3ccccc3)cc2)C1NC(=O)CCCN (stereo not drawn) [Compound 183]
MC4 inhibition at 10 micromolar (MC4): + (Indicates inhibition greater than . . . 50%) | SST5 inhibition at 10 micromolar (SST5): + (Indicates inhibition greater than . . . 50%)

CSC1OC(COCc2ccc3ccccc3c2)C(O)C(OCc2ccc(-c3ccccc3)cc2)C1NC(=O)CNC(=N)N (stereo not drawn) [Compound 186]
MC4 inhibition at 10 micromolar (MC4): + (Indicates inhibition greater than . . . 50%) | SST5 inhibition at 10 micromolar (SST5): + (Indicates inhibition greater than . . . 50%)

CSC1OC(COCc2ccc3ccccc3c2)C(O)C(OCc2ccc(-c3ccccc3)cc2)C1NC(=O)CCN (stereo not drawn) [Compound 187]
MC4 inhibition at 10 micromolar (MC4): + (Indicates inhibition greater than . . . 50%) | SST5 inhibition at 10 micromolar (SST5): + (Indicates inhibition greater than . . . 50%)

CSC1OC(COCc2ccc3ccccc3c2)C(O)C(OCc2ccc(-c3ccccc3)cc2)C1NC(=O)CCNC(=N)N (stereo not drawn) [Compound 188]
MC4 inhibition at 10 micromolar (MC4): + (Indicates inhibition greater than . . . 50%) | SST5 inhibition at 10 micromolar (SST5): + (Indicates inhibition greater than . . . 50%)

CSC1OC(COCc2ccc3ccccc3c2)C(O)C(OCc2ccc(-c3ccccc3)cc2)C1NC(=O)CCCN (stereo not drawn) [Compound 189]
MC4 inhibition at 10 micromolar (MC4): + (Indicates inhibition greater than . . . 50%) | SST5 inhibition at 10 micromolar (SST5): + (Indicates inhibition greater than . . . 50%)

CSC1OC(COCc2ccc3ccccc3c2)C(O)C(OCc2ccc(-c3ccccc3)cc2)C1NC(=O)CCCNC(=N)N (stereo not drawn) [Compound 190]
MC4 inhibition at 10 micromolar (MC4): + (Indicates inhibition greater than . . . 50%) | SST5 inhibition at 10 micromolar (SST5): + (Indicates inhibition greater than . . . 50%)

CSC1OC(COCc2ccccc2)C(O)C(OCc2ccc3ccccc3c2)C1NC(=O)CN (stereo not drawn) [Compound 191]
MC4 inhibition at 10 micromolar (MC4): + (Indicates inhibition greater than . . . 50%) | SST5 inhibition at 10 micromolar (SST5): + (Indicates inhibition greater than . . . 50%)

CSC1OC(COCc2ccccc2)C(O)C(OCc2ccc3ccccc3c2)C1NC(=O)CNC(=N)N (stereo not drawn) [Compound 192]
MC4 inhibition at 10 micromolar (MC4): + (Indicates inhibition greater than . . . 50%) | SST5 inhibition at 10 micromolar (SST5): + (Indicates inhibition greater than . . . 50%)

CSC1OC(COCc2ccccc2)C(O)C(OCc2ccc3ccccc3c2)C1NC(=O)CCNC(=N)N (stereo not drawn) [Compound 194]
MC4 inhibition at 10 micromolar (MC4): + (Indicates inhibition greater than . . . 50%) | SST5 inhibition at 10 micromolar (SST5): + (Indicates inhibition greater than . . . 50%)

CSC1OC(COCc2ccccc2)C(O)C(OCc2ccc3ccccc3c2)C1NC(=O)CCCN (stereo not drawn) [Compound 195]
MC4 inhibition at 10 micromolar (MC4): + (Indicates inhibition greater than . . . 50%) | SST5 inhibition at 10 micromolar (SST5): + (Indicates inhibition greater than . . . 50%)

CSC1OC(COCc2ccccc2)C(O)C(OCc2ccc3ccccc3c2)C1NC(=O)CCCNC(=N)N (stereo not drawn) [Compound 196]
MC4 inhibition at 10 micromolar (MC4): + (Indicates inhibition greater than . . . 50%) | SST5 inhibition at 10 micromolar (SST5): + (Indicates inhibition greater than . . . 50%)

CSC1OC(COCc2ccc(Cl)cc2)C(O)C(OCc2ccc3ccccc3c2)C1NC(=O)CN (stereo not drawn) [Compound 197]
MC4 inhibition at 10 micromolar (MC4): + (Indicates inhibition greater than . . . 50%) | SST5 inhibition at 10 micromolar (SST5): + (Indicates inhibition greater than . . . 50%)

CSC1OC(COCc2ccc(Cl)cc2)C(O)C(OCc2ccc3ccccc3c2)C1NC(=O)CNC(=N)N (stereo not drawn) [Compound 198]
MC4 inhibition at 10 micromolar (MC4): + (Indicates inhibition greater than . . . 50%) | SST5 inhibition at 10 micromolar (SST5): + (Indicates inhibition greater than . . . 50%)

CSC1OC(COCc2ccc(Cl)cc2)C(O)C(OCc2ccc3ccccc3c2)C1NC(=O)CCN (stereo not drawn) [Compound 199]
MC4 inhibition at 10 micromolar (MC4): + (Indicates inhibition greater than . . . 50%) | SST5 inhibition at 10 micromolar (SST5): + (Indicates inhibition greater than . . . 50%)

CSC1OC(COCc2ccc(Cl)cc2)C(O)C(OCc2ccc3ccccc3c2)C1NC(=O)CCNC(=N)N (stereo not drawn) [Compound 200]
MC4 inhibition at 10 micromolar (MC4): + (Indicates inhibition greater than . . . 50%) | SST5 inhibition at 10 micromolar (SST5): + (Indicates inhibition greater than . . . 50%)

CSC1OC(COCc2ccc(Cl)cc2)C(O)C(OCc2ccc3ccccc3c2)C1NC(=O)CCCN (stereo not drawn) [Compound 201]
MC4 inhibition at 10 micromolar (MC4): + (Indicates inhibition greater than . . . 50%) | SST5 inhibition at 10 micromolar (SST5): + (Indicates inhibition greater than . . . 50%)

CSC1OC(COCc2ccc(Cl)cc2)C(O)C(OCc2ccc3ccccc3c2)C1NC(=O)CCCNC(=N)N (stereo not drawn) [Compound 202]
MC4 inhibition at 10 micromolar (MC4): + (Indicates inhibition greater than . . . 50%) | SST5 inhibition at 10 micromolar (SST5): + (Indicates inhibition greater than . . . 50%)

CSC1OC(COCc2ccc(-c3ccccc3)cc2)C(O)C(OCc2ccc3ccccc3c2)C1NC(=O)CN (stereo not drawn) [Compound 203]
MC4 inhibition at 10 micromolar (MC4): + (Indicates inhibition greater than . . . 50%) | SST5 inhibition at 10 micromolar (SST5): + (Indicates inhibition greater than . . . 50%)

CSC1OC(COCc2ccc(-c3ccccc3)cc2)C(O)C(OCc2ccc3ccccc3c2)C1NC(=O)CNC(=N)N (stereo not drawn) [Compound 204]
MC4 inhibition at 10 micromolar (MC4): + (Indicates inhibition greater than . . . 50%) | SST5 inhibition at 10 micromolar (SST5): + (Indicates inhibition greater than . . . 50%)

CSC1OC(COCc2ccc(-c3ccccc3)cc2)C(O)C(OCc2ccc3ccccc3c2)C1NC(=O)CCN (stereo not drawn) [Compound 205]
MC4 inhibition at 10 micromolar (MC4): + (Indicates inhibition greater than . . . 50%) | SST5 inhibition at 10 micromolar (SST5): + (Indicates inhibition greater than . . . 50%)

CSC1OC(COCc2ccc(-c3ccccc3)cc2)C(O)C(OCc2ccc3ccccc3c2)C1NC(=O)CCNC(=N)N (stereo not drawn) [Compound 206]
MC4 inhibition at 10 micromolar (MC4): + (Indicates inhibition greater than . . . 50%) | SST5 inhibition at 10 micromolar (SST5): + (Indicates inhibition greater than . . . 50%)

CSC1OC(COCc2ccc(-c3ccccc3)cc2)C(O)C(OCc2ccc3ccccc3c2)C1NC(=O)CCCN (stereo not drawn) [Compound 207]
MC4 inhibition at 10 micromolar (MC4): + (Indicates inhibition greater than . . . 50%) | SST5 inhibition at 10 micromolar (SST5): + (Indicates inhibition greater than . . . 50%)

CSC1OC(COCc2ccc(-c3ccccc3)cc2)C(O)C(OCc2ccc3ccccc3c2)C1NC(=O)CCCNC(=N)N (stereo not drawn) [Compound 208]
MC4 inhibition at 10 micromolar (MC4): + (Indicates inhibition greater than . . . 50%) | SST5 inhibition at 10 micromolar (SST5): + (Indicates inhibition greater than . . . 50%)

CSC1OC(COCc2ccc3ccccc3c2)C(O)C(OCc2ccc3ccccc3c2)C1NC(=O)CN (stereo not drawn) [Compound 209]
MC4 inhibition at 10 micromolar (MC4): + (Indicates inhibition greater than . . . 50%) | SST5 inhibition at 10 micromolar (SST5): + (Indicates inhibition greater than . . . 50%)

CSC1OC(COCc2ccc3ccccc3c2)C(O)C(OCc2ccc3ccccc3c2)C1NC(=O)CNC(=N)N (stereo not drawn) [Compound 210]
MC4 inhibition at 10 micromolar (MC4): + (Indicates inhibition greater than . . . 50%) | SST5 inhibition at 10 micromolar (SST5): + (Indicates inhibition greater than . . . 50%)
